US8734852B2, “Parenteral controlled release formulations of NSAID's” (priority 2011, dated 2014)

How the values were obtained:
COX-I = COX-I (Homo sapiens, UniProt P23219); conditions: oral form; cited from earlier work
[1] = test system: interleukin1b-induced prostaglandin E2 production; conditions: cited from earlier work
[2] = cited from earlier work
[3] = upon dissolution in solvents; cited from earlier work
Acute Lumbago patients = experiment: Randomized comparative open labeled multicentric trial in Acute Lumbago (Phase III, 300 patients); type: in vivo, human; conditions: at 8 hrs, 24 hrs and after 48 hrs of treatment; p<0.05
[4] = aqueous formulation; cited from earlier work

Chain of COX-I (P23219 24-599): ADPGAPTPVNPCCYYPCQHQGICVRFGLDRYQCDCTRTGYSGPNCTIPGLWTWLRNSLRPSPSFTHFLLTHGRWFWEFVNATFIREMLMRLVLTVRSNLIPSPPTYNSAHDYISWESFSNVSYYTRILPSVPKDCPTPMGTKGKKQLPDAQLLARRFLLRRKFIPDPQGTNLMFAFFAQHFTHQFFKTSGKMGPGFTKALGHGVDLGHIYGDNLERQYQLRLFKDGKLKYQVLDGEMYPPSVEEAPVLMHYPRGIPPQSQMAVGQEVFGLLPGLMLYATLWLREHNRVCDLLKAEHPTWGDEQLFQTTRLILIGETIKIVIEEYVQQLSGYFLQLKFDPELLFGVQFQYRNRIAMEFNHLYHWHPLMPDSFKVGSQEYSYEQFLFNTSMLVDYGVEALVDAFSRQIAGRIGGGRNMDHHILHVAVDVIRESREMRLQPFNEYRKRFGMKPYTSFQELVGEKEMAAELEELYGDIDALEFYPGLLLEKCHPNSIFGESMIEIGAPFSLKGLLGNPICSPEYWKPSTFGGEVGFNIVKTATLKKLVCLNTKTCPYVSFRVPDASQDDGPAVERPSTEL

Row | Compound | COX-I inhibitor effect (COX-I) | interleukin1b-induced prostaglandin E2 production [1] | solubility in water [2] | conversion into diclofenac [3] | modified Schober's test improvement (Acute Lumbago patients) | retention of drug inside body [4]
1 | O=C(O)COC(=O)Cc1ccccc1Nc1c(Cl)cccc1Cl [Aceclofenac] | poor COX-I inhibitor effect | inhibits | water insoluble | immediately upon dissolution in most of the solvents | – | –
2 | O=C(O)Cc1ccccc1Nc1c(Cl)cccc1Cl [Diclofenac] | – | – | soluble in water | – | progressive improvements | ≤ 8 h
